Source: ChEMBL document CHEMBL1781971, “Discovery of 5-(arenethynyl) hetero-monocyclic derivatives as potent inhibitors of BCR-ABL including the T315I gatekeeper mutant” (Bioorg Med Chem Lett, 2011)

Experiments:
cells [1] = conditions: Mus musculus, BaF3
Description: Antiproliferative activity against BCR-ABL-negative parental mouse BA/F3 cells

cells [2] = conditions: Mus musculus, BaF3; remark: listed apart in the source
[3] = biological target: Tyrosine-protein kinase ABL1 (Homo sapiens, UniProt P00519)
cells [4] = conditions: Mus musculus, BaF3; remark: listed apart in the source
Description: Antiproliferative activity against mouse BA/F3 cells expressing wild type BCR-ABL

[5] = biological target: Tyrosine-protein kinase ABL1 (Homo sapiens, UniProt P00519, T315I)
Rattus norvegicus [6] = assay: AUC in rat at 5 mg/kg, iv; assay type: ADME, organism-based, Plasma; parameters: dose 5 mg/kg, route intravenous; conditions: in vivo
[7] = Cmax in rat at 5 mg/kg, iv; assay type: ADME, organism-based; parameters: dose 5 mg/kg, route intravenous; conditions: in vivo
[8] = Plasma concentration in mouse after 6 hrs at 30 mg/kg, po; assay type: ADME, organism-based; parameters: dose 30 mg/kg, route oral
Rattus norvegicus [9] = assay: AUC in rat at 15 mg/kg, po; assay type: ADME, organism-based, Plasma; parameters: dose 15 mg/kg, route oral; conditions: in vivo
[10] = Half life in rat at 5 mg/kg, iv; assay type: ADME, organism-based; parameters: dose 5 mg/kg, route intravenous; conditions: in vivo
[11] = Clearance in rat at 5 mg/kg, iv; assay type: ADME, organism-based; parameters: dose 5 mg/kg, route intravenous; conditions: in vivo
[12] = Cmax in rat at 15 mg/kg, po; assay type: ADME, organism-based; parameters: dose 15 mg/kg, route oral; conditions: in vivo
[13] = Volume of distribution in rat at 5 mg/kg, iv; assay type: ADME, organism-based; parameters: dose 5 mg/kg, route intravenous; conditions: in vivo
[14] = Half life in rat at 15 mg/kg, po; assay type: ADME, organism-based; parameters: dose 15 mg/kg, route oral; conditions: in vivo
[15] = Oral bioavailability in rat at 15 mg/kg; assay type: ADME, organism-based; conditions: in vivo
Insulin receptor = Insulin receptor (Homo sapiens, UniProt P06213); assay: Inhibition of human IR using poly[Glu:Tyr] by Hotspot assay
[16] = biological target: Vascular endothelial growth factor receptor 1 (Homo sapiens, UniProt P17948); assay: Inhibition of human VEGFR1 using poly[Glu:Tyr] by Hotspot assay
[17] = biological target: Tyrosine-protein kinase JAK1 (Homo sapiens, UniProt P23458); assay: Inhibition of human JAK1 using poly[Glu:Tyr] by Hotspot assay
Angiopoietin-1 receptor = Angiopoietin-1 receptor (Homo sapiens, UniProt Q02763); assay: Inhibition of human Tie2/TEK using poly[Glu:Tyr] by Hotspot assay
[18] = biological target: Fibroblast growth factor receptor 1 (Homo sapiens, UniProt P11362); assay: Inhibition of human FGFR1 using KKKSPGEYVNIEFG peptide substrate by Hotspot assay
[19] = Antitumor activity against mouse BA/F3 cells expressing ABL T315I mutant xenografted in mouse assessed as increase in overall survival at 30 mg/kg, po QD for 19 days relative to control; assay type: functional, BaF3
[20] = biological target: Macrophage colony-stimulating factor 1 receptor (Homo sapiens, UniProt P07333); assay: Inhibition of human FMS using poly[Glu:Tyr] by Hotspot assay
[21] = biological target: Platelet-derived growth factor receptor alpha (Homo sapiens, UniProt P16234); assay: Inhibition of human PDGFRalpha using poly[Glu:Tyr] by Hotspot assay
[22] = biological target: Fibroblast growth factor receptor 3 (Homo sapiens, UniProt P22607); assay: Inhibition of human FGFR3 using poly[Glu:Tyr] peptide substrate by Hotspot assay
Ephrin type-A receptor 2 = Ephrin type-A receptor 2 (Homo sapiens, UniProt P29317); assay: Inhibition of human EPHA2 using poly[Glu:Tyr] peptide substrate by Hotspot assay
[23] = biological target: Fibroblast growth factor receptor 4 (Homo sapiens, UniProt P22455); assay: Inhibition of human FGFR4 using poly[Glu:Tyr] peptide substrate by Hotspot assay
[24] = biological target: Tyrosine-protein kinase JAK2 (Homo sapiens, UniProt O60674); assay: Inhibition of human JAK2 using poly[Glu:Tyr] by Hotspot assay
[25] = biological target: Proto-oncogene tyrosine-protein kinase Src (Homo sapiens, UniProt P12931); assay: Inhibition of human Src using poly[Glu:Tyr] by Hotspot assay
[26] = biological target: Receptor-type tyrosine-protein kinase FLT3 (Homo sapiens, UniProt P36888)
[27] = biological target: Cyclin-dependent kinase 2/cyclin E1 (Homo sapiens, UniProt P24941); assay: Inhibition of human CDK2/Cyclin E using Histone H1 substrate by Hotspot assay; assay type: protein-complex assay
[28] = biological target: Tyrosine-protein kinase JAK3 (Homo sapiens, UniProt P52333); assay: Inhibition of human JAK3 using GEEEEYFELVKKKK peptide substrate by Hotspot assay
[29] = biological target: Fibroblast growth factor receptor 2 (Homo sapiens, UniProt P21802); assay: Inhibition of human FGFR2 using poly[Glu:Tyr] peptide substrate by Hotspot assay
[30] = biological target: Serine/threonine-protein kinase B-raf (Homo sapiens, UniProt P15056, V600E); assay: Inhibition of human BRAF V599E mutant using MEK1 (K97R), ATP substrate by Hotspot assay
Aurora kinase A = Aurora kinase A (Homo sapiens, UniProt O14965); assay: Inhibition of human Aurora A using H-LRRASLG peptide substrate by Hotspot assay
[31] = biological target: Serine/threonine-protein kinase B-raf (Homo sapiens, UniProt P15056); assay: Inhibition of human BRAF using MEK1 (K97R), ATP substrate by Hotspot assay
[32] = biological target: Vascular endothelial growth factor receptor 2 (Homo sapiens, UniProt P35968); assay: Inhibition of human VEGFR2 using poly[Glu:Tyr] by Hotspot assay
Ephrin type-A receptor 3 = Ephrin type-A receptor 3 (Homo sapiens, UniProt P29320); assay: Inhibition of human EPHA3 using poly[Glu:Tyr] peptide substrate by Hotspot assay
[33] = biological target: Hepatocyte growth factor receptor (Homo sapiens, UniProt P08581); assay: Inhibition of human c-Met using KKKSPGEYVNIEFG peptide substrate by Hotspot assay
[34] = biological target: Mast/stem cell growth factor receptor Kit (Homo sapiens, UniProt P10721); assay: Inhibition of human c-Kit using poly[Glu:Tyr] by Hotspot assay
[35] = biological target: Tyrosine-protein kinase Lyn (Homo sapiens, UniProt P07948); assay: Inhibition of human LYN using poly[Glu:Tyr] by Hotspot assay
Ephrin type-A receptor 7 = Ephrin type-A receptor 7 (Homo sapiens, UniProt Q15375); assay: Inhibition of human EPHA7 using poly[Glu:Tyr] peptide substrate by Hotspot assay

Sequence of Aurora kinase A (O14965 whole entry): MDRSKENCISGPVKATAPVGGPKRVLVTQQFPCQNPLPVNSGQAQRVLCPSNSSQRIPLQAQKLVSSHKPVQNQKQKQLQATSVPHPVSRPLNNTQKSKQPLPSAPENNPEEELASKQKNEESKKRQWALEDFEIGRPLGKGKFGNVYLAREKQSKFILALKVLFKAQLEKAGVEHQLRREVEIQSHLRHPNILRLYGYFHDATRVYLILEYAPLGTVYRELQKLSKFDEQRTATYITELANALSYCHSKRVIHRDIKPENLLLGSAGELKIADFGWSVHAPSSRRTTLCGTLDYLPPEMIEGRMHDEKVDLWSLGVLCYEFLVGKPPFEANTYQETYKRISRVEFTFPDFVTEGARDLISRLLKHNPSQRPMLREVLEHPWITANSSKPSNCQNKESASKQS
Sequence of Insulin receptor (P06213 28-758 limits assumed): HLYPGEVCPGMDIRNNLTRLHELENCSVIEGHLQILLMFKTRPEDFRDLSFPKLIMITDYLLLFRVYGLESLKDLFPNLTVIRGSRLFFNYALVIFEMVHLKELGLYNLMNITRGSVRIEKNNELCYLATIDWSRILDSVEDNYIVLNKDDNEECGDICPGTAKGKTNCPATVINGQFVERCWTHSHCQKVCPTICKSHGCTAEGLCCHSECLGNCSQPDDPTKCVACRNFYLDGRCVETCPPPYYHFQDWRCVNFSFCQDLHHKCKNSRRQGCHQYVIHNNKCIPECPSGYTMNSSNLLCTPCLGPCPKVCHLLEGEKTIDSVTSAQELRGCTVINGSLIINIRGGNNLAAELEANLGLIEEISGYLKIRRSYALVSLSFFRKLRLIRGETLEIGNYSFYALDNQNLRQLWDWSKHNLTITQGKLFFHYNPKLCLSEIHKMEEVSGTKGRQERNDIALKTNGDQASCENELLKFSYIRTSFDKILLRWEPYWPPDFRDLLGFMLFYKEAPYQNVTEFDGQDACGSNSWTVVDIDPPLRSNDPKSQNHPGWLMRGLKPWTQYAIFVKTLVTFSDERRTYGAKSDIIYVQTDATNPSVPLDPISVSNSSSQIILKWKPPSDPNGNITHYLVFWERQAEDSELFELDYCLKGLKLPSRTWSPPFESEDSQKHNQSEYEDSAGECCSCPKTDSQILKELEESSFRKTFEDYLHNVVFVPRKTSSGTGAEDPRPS
Sequence of Insulin receptor (P06213 763-1382 limits assumed): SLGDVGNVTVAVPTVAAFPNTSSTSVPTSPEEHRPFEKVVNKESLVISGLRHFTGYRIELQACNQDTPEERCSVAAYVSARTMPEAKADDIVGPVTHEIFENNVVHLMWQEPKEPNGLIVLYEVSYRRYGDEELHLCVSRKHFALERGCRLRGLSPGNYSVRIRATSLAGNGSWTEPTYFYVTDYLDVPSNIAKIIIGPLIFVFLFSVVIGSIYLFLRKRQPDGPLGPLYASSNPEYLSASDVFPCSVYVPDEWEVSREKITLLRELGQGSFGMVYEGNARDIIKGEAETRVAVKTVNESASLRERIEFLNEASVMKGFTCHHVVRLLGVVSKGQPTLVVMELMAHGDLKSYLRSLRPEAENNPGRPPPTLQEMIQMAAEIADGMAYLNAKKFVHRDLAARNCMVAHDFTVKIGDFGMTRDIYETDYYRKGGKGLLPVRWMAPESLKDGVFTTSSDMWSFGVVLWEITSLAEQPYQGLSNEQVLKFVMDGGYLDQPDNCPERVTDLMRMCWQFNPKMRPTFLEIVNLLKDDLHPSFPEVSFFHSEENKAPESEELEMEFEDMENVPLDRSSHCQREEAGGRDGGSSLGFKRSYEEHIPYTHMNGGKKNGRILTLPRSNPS
Sequence of Proto-oncogene tyrosine-protein kinase Src (P12931 2-536 limits assumed): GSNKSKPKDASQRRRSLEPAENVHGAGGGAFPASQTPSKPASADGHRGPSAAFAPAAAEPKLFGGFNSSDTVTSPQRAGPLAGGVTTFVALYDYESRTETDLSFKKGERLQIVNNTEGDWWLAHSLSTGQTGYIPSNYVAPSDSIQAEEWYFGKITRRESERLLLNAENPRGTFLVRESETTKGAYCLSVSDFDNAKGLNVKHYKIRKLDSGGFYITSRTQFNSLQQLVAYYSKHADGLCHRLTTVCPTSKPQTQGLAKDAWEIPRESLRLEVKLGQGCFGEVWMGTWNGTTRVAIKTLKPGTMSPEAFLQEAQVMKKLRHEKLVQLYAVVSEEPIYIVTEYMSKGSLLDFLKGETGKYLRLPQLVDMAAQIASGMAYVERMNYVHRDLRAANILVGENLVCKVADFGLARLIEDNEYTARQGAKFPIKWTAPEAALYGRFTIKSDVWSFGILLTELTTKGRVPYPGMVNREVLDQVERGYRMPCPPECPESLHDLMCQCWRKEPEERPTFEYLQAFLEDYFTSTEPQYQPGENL
Sequence of Tyrosine-protein kinase JAK3 (P52333 whole entry): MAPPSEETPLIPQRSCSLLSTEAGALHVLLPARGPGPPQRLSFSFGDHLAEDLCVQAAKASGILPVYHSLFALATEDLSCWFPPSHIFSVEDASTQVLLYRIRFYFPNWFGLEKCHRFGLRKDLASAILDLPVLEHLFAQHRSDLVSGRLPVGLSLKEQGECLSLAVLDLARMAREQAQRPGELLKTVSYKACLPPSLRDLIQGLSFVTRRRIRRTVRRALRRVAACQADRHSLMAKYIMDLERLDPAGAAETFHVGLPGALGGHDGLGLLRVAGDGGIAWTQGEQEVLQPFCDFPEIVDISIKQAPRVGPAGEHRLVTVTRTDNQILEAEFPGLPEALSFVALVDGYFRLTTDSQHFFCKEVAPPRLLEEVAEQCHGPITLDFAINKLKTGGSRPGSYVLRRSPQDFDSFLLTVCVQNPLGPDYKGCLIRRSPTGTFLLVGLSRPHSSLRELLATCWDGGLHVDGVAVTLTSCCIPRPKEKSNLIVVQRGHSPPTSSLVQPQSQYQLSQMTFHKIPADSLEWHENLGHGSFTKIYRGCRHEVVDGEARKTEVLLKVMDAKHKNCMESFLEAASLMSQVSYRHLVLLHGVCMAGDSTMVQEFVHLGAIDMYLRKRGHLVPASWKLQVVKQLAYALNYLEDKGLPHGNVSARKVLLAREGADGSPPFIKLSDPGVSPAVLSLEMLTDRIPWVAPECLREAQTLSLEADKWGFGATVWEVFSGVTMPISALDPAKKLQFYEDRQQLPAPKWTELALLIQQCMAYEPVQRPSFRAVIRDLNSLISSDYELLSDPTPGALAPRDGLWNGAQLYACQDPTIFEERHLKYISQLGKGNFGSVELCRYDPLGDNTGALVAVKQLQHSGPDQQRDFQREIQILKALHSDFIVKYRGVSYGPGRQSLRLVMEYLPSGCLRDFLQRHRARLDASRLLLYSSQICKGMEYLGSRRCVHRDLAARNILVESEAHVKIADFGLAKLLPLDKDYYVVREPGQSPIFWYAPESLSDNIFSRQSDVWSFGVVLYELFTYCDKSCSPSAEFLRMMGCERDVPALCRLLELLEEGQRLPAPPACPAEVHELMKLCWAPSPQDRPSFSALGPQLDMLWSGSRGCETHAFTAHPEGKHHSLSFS
Sequence of Tyrosine-protein kinase JAK2 (O60674 whole entry): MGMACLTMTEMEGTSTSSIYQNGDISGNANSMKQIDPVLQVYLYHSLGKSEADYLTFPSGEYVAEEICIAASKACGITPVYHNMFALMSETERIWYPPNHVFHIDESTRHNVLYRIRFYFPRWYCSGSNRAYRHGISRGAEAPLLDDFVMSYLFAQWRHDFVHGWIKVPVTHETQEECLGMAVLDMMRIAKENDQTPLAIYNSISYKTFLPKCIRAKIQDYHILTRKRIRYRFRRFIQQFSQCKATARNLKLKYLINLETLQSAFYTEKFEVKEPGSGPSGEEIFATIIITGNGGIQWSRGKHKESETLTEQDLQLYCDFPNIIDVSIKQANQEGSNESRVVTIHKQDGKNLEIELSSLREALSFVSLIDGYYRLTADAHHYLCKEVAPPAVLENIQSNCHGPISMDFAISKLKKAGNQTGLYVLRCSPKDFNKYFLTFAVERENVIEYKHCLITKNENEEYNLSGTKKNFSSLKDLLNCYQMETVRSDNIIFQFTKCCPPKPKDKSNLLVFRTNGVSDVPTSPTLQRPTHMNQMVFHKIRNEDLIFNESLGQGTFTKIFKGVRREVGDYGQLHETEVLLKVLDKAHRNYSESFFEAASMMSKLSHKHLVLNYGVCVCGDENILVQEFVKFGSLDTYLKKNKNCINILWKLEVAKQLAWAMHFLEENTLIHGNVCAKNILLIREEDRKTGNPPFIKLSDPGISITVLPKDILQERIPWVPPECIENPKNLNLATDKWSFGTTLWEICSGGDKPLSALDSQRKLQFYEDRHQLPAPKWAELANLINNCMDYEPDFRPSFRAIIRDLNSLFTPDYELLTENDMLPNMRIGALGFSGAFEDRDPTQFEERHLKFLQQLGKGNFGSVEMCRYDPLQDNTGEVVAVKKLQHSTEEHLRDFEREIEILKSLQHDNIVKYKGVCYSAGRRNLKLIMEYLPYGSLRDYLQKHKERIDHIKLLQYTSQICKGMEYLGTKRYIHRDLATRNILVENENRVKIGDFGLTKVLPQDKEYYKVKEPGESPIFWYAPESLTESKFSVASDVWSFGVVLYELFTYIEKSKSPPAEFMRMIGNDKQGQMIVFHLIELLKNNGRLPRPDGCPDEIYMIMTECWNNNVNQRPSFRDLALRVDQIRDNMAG
Sequence of Tyrosine-protein kinase Lyn (P07948 whole entry): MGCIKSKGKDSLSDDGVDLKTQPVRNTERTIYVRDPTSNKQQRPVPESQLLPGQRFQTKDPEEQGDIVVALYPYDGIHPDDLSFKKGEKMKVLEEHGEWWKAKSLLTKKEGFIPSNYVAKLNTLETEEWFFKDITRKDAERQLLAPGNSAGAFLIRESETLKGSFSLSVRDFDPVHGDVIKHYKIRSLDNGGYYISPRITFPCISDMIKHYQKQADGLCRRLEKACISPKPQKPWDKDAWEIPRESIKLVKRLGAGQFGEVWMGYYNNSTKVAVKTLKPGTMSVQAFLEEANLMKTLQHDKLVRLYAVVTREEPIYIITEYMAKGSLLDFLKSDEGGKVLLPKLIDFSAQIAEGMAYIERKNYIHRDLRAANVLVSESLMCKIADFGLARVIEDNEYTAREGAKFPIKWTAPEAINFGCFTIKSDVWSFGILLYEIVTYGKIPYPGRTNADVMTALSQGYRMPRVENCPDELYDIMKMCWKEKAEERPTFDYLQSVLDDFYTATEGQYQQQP

`Cc1ccc(C(=O)Nc2ccc(CN3CCN(C)CC3)c(C(F)(F)F)c2)cc1C#Cc1cnc(C)n1C` showed an IC50 (cells [1]) of 1790 nM, an IC50 (cells [2]) of 69 nM and an IC50 [3] of 72.6 nM. The IC50 (cells [4]) was 8.5 nM and the IC50 [5] was 362 nM.
Compound `Cc1ccc(C(=O)Nc2ccc(CN3CCN(C)CC3)c(C(F)(F)F)c2)cc1C#Cc1cnc(C(N)=O)n1C` has an AUC (Rattus norvegicus [6]) of 5445 h/ng/mL, a Cmax [7] of 627 ng/mL and a concentration at 6 h [8] of 358 ng/mL. For the same compound, the AUC (Rattus norvegicus [9]) was 4144 h/ng/mL, the half-life [10] was 7 h and the IC50 (cells [1]) was 787 nM. The clearance [11] was 15.3 mL/min/kg, the Cmax [12] was 258 ng/mL and the IC50 (cells [2]) was 7.6 nM. For the same compound, the Vd [13] was 9.3 L/kg, the IC50 [3] was 3.6 nM and the half-life [14] was 8 h. For the same compound, the IC50 (cells [4]) was 1.3 nM, the bioavailability [15] was 25.3% and the IC50 [5] was 25 nM.
Work on `CNC(=O)c1ncc(C#Cc2cc(C(=O)Nc3ccc(CN4CCN(C)CC4)c(C(F)(F)F)c3)ccc2C)n1C` yielded an IC50 (cells [1]) of 1580 nM, an IC50 (cells [2]) of 4 nM and an IC50 [3] of 17.4 nM. It also gave an IC50 (cells [4]) of 1.7 nM and an IC50 [5] of 18 nM.
With `Cc1ccc(C(=O)Nc2ccc(CN3CCN(C)CC3)c(C(F)(F)F)c2)cc1C#Cc1cnc(C(=O)NCCO)n1C` the IC50 (cells [1]) was 1600 nM, the IC50 (cells [2]) was 64 nM and the IC50 [3] was 55 nM. The IC50 (cells [4]) was 3.9 nM and the IC50 [5] was 301 nM.
In the case of `CNC(=O)c1ncc(C#Cc2cc(C(=O)Nc3ccc(CN4CCN(CCO)CC4)c(C(F)(F)F)c3)ccc2C)n1C`, the IC50 (Insulin receptor) is reported as over 3000 nM, the AUC (Rattus norvegicus [6]) is reported as 970 h/ng/mL and the Cmax [7] is reported as 200 ng/mL. For the same compound, the concentration at 6 h [8] was 1150 ng/mL, the IC50 [16] was 5.2 nM and the IC50 [17] was 55.3 nM. For the same compound, the IC50 (Angiopoietin-1 receptor) was 2.2 nM, the IC50 [18] was 1.8 nM and the Activity [19] was 130%. The IC50 [20] was 7.2 nM, the AUC (Rattus norvegicus [9]) was 6586 h/ng/mL and the IC50 [21] was 1.3 nM. For the same compound, the IC50 [22] was 10.5 nM, the IC50 (Ephrin type-A receptor 2) was 0.6 nM and the IC50 [23] was 34 nM. It also gave an IC50 [24] of 536 nM, a half-life [10] of 5.6 h and an IC50 [25] of 4 nM. It also gave an IC50 [26] of 2 nM, an IC50 (cells [1]) of 3090 nM and an IC50 [27] of 6.4 nM. For the same compound, the IC50 [28] was 57.5 nM, the clearance [11] was 17.2 mL/min/kg and the IC50 [29] was 1.5 nM. For the same compound, the IC50 [30] was 26 nM, the IC50 (Aurora kinase A) was over 3000 nM and the Cmax [12] was 344 ng/mL. For the same compound, the IC50 (cells [2]) was 8.4 nM, the Vd [13] was 8.2 L/kg and the IC50 [31] was 20 nM. The IC50 [32] was 2.3 nM, the IC50 (Ephrin type-A receptor 3) was 1.2 nM and the half-life [14] was 10 h. For the same compound, the IC50 [33] was over 3000 nM, the IC50 (cells [4]) was 1.3 nM and the bioavailability [15] was 45%. For the same compound, the IC50 [34] was over 3000 nM, the IC50 [35] was under 0.15 nM and the IC50 (Ephrin type-A receptor 7) was 4.2 nM.
In the case of `COCCN1CCN(Cc2ccc(NC(=O)c3ccc(C)c(C#Cc4cnc(C(N)=O)n4C)c3)cc2C(F)(F)F)CC1`, the IC50 (cells [1]) is reported as 2380 nM, the IC50 (cells [2]) is reported as 10.8 nM and the IC50 [3] is reported as 4.8 nM. It also gave an IC50 (cells [4]) of 0.65 nM and an IC50 [5] of 140 nM.
`Cc1ccc(C(=O)Nc2ccc(CN3CCN(CC(=O)O)CC3)c(C(F)(F)F)c2)cc1C#Cc1cnc(C(N)=O)n1C` showed an IC50 (cells [1]) of 10000 nM, an IC50 (cells [2]) of 64 nM and an IC50 [3] of 4.3 nM. For the same compound, the IC50 (cells [4]) was 7.6 nM and the IC50 [5] was 106 nM.
In the case of `Cc1ccc(C(=O)Nc2ccc(CN3CCN(C)CC3)c(C(F)(F)F)c2)cc1C#Cc1cnc(N)s1`, the IC50 (cells [1]) is reported as 1270 nM, the IC50 (cells [2]) is reported as 17.5 nM and the IC50 [3] is reported as 29 nM. It also gave an IC50 (cells [4]) of 2.8 nM and an IC50 [5] of 139 nM.
In the case of `CC(=O)Nc1ncc(C#Cc2cc(C(=O)Nc3ccc(CN4CCN(C)CC4)c(C(F)(F)F)c3)ccc2C)s1`, the IC50 (cells [1]) is reported as 97 nM, the IC50 (cells [2]) is reported as 5.5 nM and the IC50 [3] is reported as 12 nM. It also gave an IC50 (cells [4]) of 0.67 nM and an IC50 [5] of 27 nM.
